In patent US3966739A, “Pyrrole-carboxylic acids lumilysergol esters” (Societa' Farmaceutici Italia S.p.A., priority 1971, dated 1976) one finds IC50 and ED50 data, which are given here for 11 compounds.

Assay [1] has as its system spasmogen action of adrenaline on isolated seminal small bladder. Description: adrenolytic activity on isolated seminal small bladder of guinea-pig (inhibition of spasmogen action of adrenaline). The class given is cell-based. Conditions: Cavia porcellus; isolated seminal small bladder of guinea-pig suspended in physiologic solution; read-out: concentrations inhibiting 50% of the spasmogen action of adrenaline (IC50). From the text: The adrenolytic activity of the compounds of the invention has been tested by employing dihydroergotamine as a comparison compound. Particularly, it has been determined on the isolated seminal small bladder of guinea-pig suspended in physiologic solution.
Table I reports the concentrations inhibiting 50% of the spasmogen action of adrenaline (IC50).

In assay [2] the test system is lethal effects of adrenaline. The assay can be described thus: adrenolytic activity in vivo in the rat (reduction of lethal effects of adrenaline). From the text: The same activity, in vivo, has been determined in the rat. Table II reports the doses ID50 (in mg/kg) capable of reducing 50% of the lethal effects of adrenaline by intravenous administration (i.v.) and oral administration (os) of the compounds under examination.

The mark [3] stands for this setting: intravenous administration (i.v.), read-out: ID50 (i.v.): dose reducing 50% of the lethal effects of adrenaline.
Setting [4] is: oral administration (os), read-out: ID50 (os): dose reducing 50% of the lethal effects of adrenaline.

≈ marks a conversion by molar mass, not a printed value. Structures can show the parent of a compound that is named as a salt. Where two headings read alike, the source gives them in different places.

`CO[C@]12C[C@@H](COC(=O)c3c(C)c[nH]c3C)CN(C)[C@@H]1Cc1cn(C)c3cccc2c13` [1,6-Dimethyl-8β-[2', 4'-dimethyl-3'-pyrroyloxymethyl]-10α-methoxyergoline]: the IC50 in assay [1] came to 0.07 µg/mL (≈ 0.166 µM). Further, the figures for the ED50 in assay [2] (setting [3]) and in assay [2] (setting [4]) were 0.1 mg/kg and 0.7 mg/kg, respectively.
In the same order, the values of `CO[C@]12C[C@@H](COC(=O)c3cc[nH]c3)CN(C)[C@@H]1Cc1cn(C)c3cccc2c13` [1,6-Dimethyl-8β-(3'-pyrroyloxymethyl)-10α-methoxyergoline] are 0.005 µg/mL (≈ 0.0127 µM), 0.05 mg/kg and 0.5 mg/kg.
In the same order, the values of `CO[C@]12C[C@@H](COC(=O)c3c(C)cc(C)n3C)CN(C)[C@@H]1Cc1cn(C)c3cccc2c13` [1,6-Dimethyl-8β-[1', 3',5'-trimethyl-2'-pyrroyloxymethyl]-10α-methoxyergoline maleate] are 0.01 µg/mL, 0.25 mg/kg and 0.2 mg/kg.
In the same order, the values of `CCOC(=O)c1c(C)[nH]c(C(=O)OC[C@H]2CN(C)[C@@H]3Cc4cn(C)c5cccc(c45)[C@@]3(OC)C2)c1C` [1,6-Dimethyl-8β-[3', 5'-dimethyl-4'-carbethoxy-2'-pyrroyloxymethyl]-10α-methoxyergoline] are 1 µg/mL (≈ 2.03 µM), more than 0.1 mg/kg and 2.5 mg/kg.
Take `CN1C[C@H](C(=O)N[C@]2(C)O[C@@]3(O)[C@@H]4CCCN4C(=O)[C@H](Cc4ccccc4)N3C2=O)C[C@@H]2c3cccc4[nH]cc(c34)C[C@H]21` [Dihydroergotamine, reference compound]: the IC50 in assay [1] turned out to be 0.015 µg/mL (≈ 0.0257 µM). In addition, the ED50 in assay [2] (setting [3]) is 0.08 mg/kg; in assay [2] (setting [4]), 15 mg/kg.
As for `CO[C@]12C[C@@H](COC(=O)c3[nH]c(C)cc3C)CN(C)[C@@H]1Cc1cn(C)c3cccc2c13` [1,6-Dimethyl-8β-(3',5'-dimethyl-2'-pyrroyloxymethyl)-10α-methoxyergoline], in assay [1], the IC50 was determined as 0.05 µg/mL (≈ 0.119 µM). In addition, the ED50 in assay [2] (setting [3]) was determined as 0.065 mg/kg; in assay [2] (setting [4]), 0.1 mg/kg.
Consider `CO[C@]12C[C@@H](COC(=O)c3[nH]c(C)c(Br)c3C)CN(C)[C@@H]1Cc1cn(C)c3cccc2c13` [1,6-Dimethyl-8β-[3', 5'-dimethyl-4'-bromo-2'-pyrroyloxymethyl]-10α-methoxyergoline], for which the IC50 in assay [1] came out at 0.1 µg/mL (≈ 0.2 µM). The ED50 is more than 1 mg/kg in assay [2] (setting [3]) and 0.5 mg/kg in assay [2] (setting [4]).
In the same order, the values of `CO[C@]12C[C@@H](COC(=O)c3cccn3C)CN(C)[C@@H]1Cc1cn(C)c3cccc2c13` [1,6-dimethyl-8β-[2'-(N-methyl)-pyrroyloxymethyl]-10α-methoxyergoline] are 0.005 µg/mL (≈ 0.0123 µM), 0.025 mg/kg and 1 mg/kg.
In the same order, the values of `CO[C@]12C[C@@H](COC(=O)c3cc[nH]c3C)CN(C)[C@@H]1Cc1cn(C)c3cccc2c13` [1,6-Dimethyl-8β-[2'-methyl-3'-pyrroyloxymethyl]-10α-methoxyergoline] are 0.05 µg/mL (≈ 0.123 µM), 0.05 mg/kg and 0.25 mg/kg.
In the same order, the values of `COc1c[nH]cc1C(=O)OC[C@H]1CN(C)[C@@H]2Cc3cn(C)c4cccc(c34)[C@@]2(OC)C1` [1,6-Dimethyl-8β-[4'-methoxy-3'-pyrroyloxymethyl]-10α-methoxyergoline] are 0.1 µg/mL (≈ 0.236 µM), 0.075 mg/kg and 0.3 mg/kg.
Take `CO[C@]12C[C@@H](COC(=O)c3ccc[nH]3)CN(C)[C@@H]1Cc1cn(C)c3cccc2c13` [1,6-Dimethyl-8β-(2'-pyrroyloxymethyl)-10α-methoxyergoline]: the IC50 in assay [1] worked out at 0.005 µg/mL (≈ 0.0127 µM). The ED50 in assay [2] (setting [3]) worked out at 0.005 mg/kg; in assay [2] (setting [4]) it was 0.5 mg/kg.
